From ChEMBL document CHEMBL1137944, “Imidazole derivatives as new potent and selective 20-HETE synthase inhibitors” (Bioorg Med Chem Lett, 2004)

Tests used:
[1] = Inhibition of 20-HETE synthesis in human renal microsomes; parameters: species or system Microsome
Cytochrome P450 3A4 = Cytochrome P450 3A4 (Homo sapiens, UniProt P08684); test: Inhibition of cytochrome P450 3A4
[2] = Distribution coefficient of compound was evaluated at pH 6.8; settings: octanol/water
Cytochrome P450 1A2 = molecular target: T1, Cytochrome P450 1A2 (Homo sapiens, UniProt P05177); test: Inhibition of cytochrome P450 1A2
T1 sequence (P05177 whole entry): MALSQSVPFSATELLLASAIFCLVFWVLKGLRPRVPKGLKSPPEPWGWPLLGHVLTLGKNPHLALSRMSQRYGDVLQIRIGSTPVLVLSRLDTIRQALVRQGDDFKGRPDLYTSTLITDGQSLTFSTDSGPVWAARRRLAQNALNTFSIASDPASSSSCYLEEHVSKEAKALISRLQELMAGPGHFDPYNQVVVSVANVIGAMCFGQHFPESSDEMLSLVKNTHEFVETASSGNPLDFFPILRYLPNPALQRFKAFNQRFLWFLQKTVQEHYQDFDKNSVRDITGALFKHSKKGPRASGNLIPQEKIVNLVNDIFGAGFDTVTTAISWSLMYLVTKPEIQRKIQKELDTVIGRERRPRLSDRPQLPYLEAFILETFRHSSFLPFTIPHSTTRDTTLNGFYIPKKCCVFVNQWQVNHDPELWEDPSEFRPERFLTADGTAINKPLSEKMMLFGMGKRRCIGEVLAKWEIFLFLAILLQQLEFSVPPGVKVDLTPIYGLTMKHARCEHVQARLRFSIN

Cytochrome P450 2C9 = Cytochrome P450 2C9 (Homo sapiens, UniProt P11712); test: Inhibition of cytochrome P450 2C9
Cytochrome P450 2C19 = Cytochrome P450 2C19 (Homo sapiens, UniProt P33261); test: Inhibition of cytochrome P450 2C19
Cytochrome P450 2D6 = Cytochrome P450 2D6 (Homo sapiens, UniProt P10635); test: Inhibition of cytochrome P450 2D6
Cytochrome P450 2D6, sequence (P10635 whole entry): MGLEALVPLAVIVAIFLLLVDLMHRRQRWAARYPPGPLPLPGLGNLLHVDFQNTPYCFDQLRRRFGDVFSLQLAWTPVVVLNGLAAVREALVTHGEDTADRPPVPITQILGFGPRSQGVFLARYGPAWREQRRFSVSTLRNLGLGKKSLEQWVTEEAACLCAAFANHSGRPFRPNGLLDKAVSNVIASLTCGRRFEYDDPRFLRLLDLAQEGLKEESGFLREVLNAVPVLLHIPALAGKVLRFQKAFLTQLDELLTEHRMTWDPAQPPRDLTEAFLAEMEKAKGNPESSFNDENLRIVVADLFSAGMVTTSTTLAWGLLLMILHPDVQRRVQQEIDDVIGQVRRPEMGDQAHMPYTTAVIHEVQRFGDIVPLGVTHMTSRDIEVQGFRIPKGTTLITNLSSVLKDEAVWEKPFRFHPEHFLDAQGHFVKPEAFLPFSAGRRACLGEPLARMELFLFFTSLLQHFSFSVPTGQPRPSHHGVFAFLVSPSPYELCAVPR

Cytochrome P450 3A4, sequence (P08684 whole entry): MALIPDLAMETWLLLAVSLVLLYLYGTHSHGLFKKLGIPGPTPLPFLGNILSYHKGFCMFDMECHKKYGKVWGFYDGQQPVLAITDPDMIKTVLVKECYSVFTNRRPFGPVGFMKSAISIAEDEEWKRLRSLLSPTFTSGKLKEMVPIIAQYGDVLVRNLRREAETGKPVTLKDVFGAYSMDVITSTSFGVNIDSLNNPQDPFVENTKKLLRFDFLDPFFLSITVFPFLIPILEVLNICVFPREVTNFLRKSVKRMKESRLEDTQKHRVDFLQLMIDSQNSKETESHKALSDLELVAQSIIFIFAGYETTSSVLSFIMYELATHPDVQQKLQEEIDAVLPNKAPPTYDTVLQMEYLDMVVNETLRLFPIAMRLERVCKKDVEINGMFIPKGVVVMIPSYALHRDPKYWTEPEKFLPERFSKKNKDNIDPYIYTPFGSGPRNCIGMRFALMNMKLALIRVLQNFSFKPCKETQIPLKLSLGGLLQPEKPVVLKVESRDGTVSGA
Cytochrome P450 2C9, sequence (P11712 whole entry): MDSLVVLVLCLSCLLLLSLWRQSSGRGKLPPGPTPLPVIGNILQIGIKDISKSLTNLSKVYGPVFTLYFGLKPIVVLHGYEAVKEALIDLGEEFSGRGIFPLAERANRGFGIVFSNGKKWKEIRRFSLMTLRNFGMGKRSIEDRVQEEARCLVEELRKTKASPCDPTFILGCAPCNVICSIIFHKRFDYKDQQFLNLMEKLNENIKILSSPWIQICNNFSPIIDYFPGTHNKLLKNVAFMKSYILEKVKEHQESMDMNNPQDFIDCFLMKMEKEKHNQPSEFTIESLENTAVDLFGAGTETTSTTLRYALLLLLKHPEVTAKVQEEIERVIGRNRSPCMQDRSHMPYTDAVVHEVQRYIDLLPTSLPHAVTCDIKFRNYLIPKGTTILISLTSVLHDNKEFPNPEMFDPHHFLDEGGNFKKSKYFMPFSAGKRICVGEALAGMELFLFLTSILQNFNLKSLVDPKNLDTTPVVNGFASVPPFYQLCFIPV
Cytochrome P450 2C19, sequence (P33261 whole entry): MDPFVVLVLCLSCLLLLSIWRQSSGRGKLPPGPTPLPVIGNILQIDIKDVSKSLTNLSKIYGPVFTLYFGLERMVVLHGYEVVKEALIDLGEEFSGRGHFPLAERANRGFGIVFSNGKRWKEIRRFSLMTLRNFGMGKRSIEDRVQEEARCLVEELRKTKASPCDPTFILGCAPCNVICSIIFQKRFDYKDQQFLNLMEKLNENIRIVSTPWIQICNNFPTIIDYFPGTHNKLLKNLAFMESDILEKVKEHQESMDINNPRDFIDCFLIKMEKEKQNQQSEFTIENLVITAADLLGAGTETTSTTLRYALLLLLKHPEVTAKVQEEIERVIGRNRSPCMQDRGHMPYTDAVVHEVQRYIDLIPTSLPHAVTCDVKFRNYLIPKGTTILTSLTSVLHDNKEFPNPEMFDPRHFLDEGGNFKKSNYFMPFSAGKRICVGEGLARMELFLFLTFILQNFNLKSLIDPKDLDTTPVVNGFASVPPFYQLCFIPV

Row | SMILES | IC50 [1] [nM] | IC50 (Cytochrome P450 3A4) [nM] | logD [2] | IC50 (Cytochrome P450 1A2) [nM] | IC50 (Cytochrome P450 2C9) [nM] | IC50 (Cytochrome P450 2C19) [nM] | IC50 (Cytochrome P450 2D6) [nM]
1 | c1ccc(COc2ccc(-n3ccnc3)cc2)nc1 | 4.5 | 630 | 1.99 | 120 | 130 | < 46 | 1040
2 | c1cn(-c2ccc(OCCN3CCOCC3)cc2)cn1 | 8.6 | 5670 | 0.91 | 1480 | 1810 | 91 | 399
3 | c1cc(CCCOc2ccc(-n3ccnc3)cc2)ccn1 | 1.1 | 344 | 2.81 | < 46 | 101 | < 46 | 1040
4 | CN(C)CCCCCCOc1ccc(-n2ccnc2)cc1 | 2.2 | 4460 | 0.51 | 800 |  |  | 410
5 | CN(C)CCCOc1ccc(-n2ccnc2)cc1 | 51 | 39000 | -0.41 | 3400 |  |  | 400
6 | CCOC(=O)N1CCN(CCOc2ccc(-n3ccnc3)cc2)CC1 | 16 | > 100000 | 2.27 | 2240 | 1440 | 469 | 3200
7 | c1ccc(CCCOc2ccc(-n3ccnc3)cc2)nc1 | 2.1 | 252 | 2.84 | < 46 | 129 | < 46 | 620
8 | c1cncc(CCCOc2ccc(-n3ccnc3)cc2)c1 | 1.1 | 417 | 2.85 | < 46 | 185 | < 46 | 1300
9 | CCCCc1ccc(/N=C/NO)c(C)c1 | 8.9 |  |  |  |  |  | 
10 | CCCCCCOc1ccc(-n2ccnc2)cn1 | 7.7 |  |  |  |  |  | 
11 | CN(C)CCOc1ccc(-n2ccnc2)cc1 | 387 | > 100000 | -0.08 | 15000 |  |  | 1050
